Data as given in article PMC4490784, “Compensatory induction of MYC expression by sustained CDK9 inhibition via a BRD4-dependent mechanism” (eLife, 2015).

Experiments:
Assay in all cases: KINOMEscan binding assay
[1] = target: T1, ABL1(E255K)-phosphorylated (Homo sapiens, UniProt P00519, E255K); settings: 1 µM i-CDK9; read-out: % Retention on Solid Support
T1 construct: purchased DiscoveRx KINOMEscan
Outline: (§1)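 Binding, not catalytic activity, is measured: the compound competes with an active-site-directed ligand. Screening concentrations were 1 and 10 µM, applied across more than 400 kinases.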

PRKCQ = target: T2, PRKCQ (Homo sapiens, UniProt Q04759); settings: read-out: % Retention on Solid Support
T2 construct: purchased DiscoveRx KINOMEscan
Outline: as §1

CSF1R = target: T3, CSF1R (Homo sapiens, UniProt P07333); settings: read-out: % Retention on Solid Support
T3 construct: purchased DiscoveRx KINOMEscan
Outline: as §1

VRK2 = target: T4, VRK2 (Homo sapiens, UniProt Q86Y07); settings: 1 µM i-CDK9; read-out: % Retention on Solid Support
T4 construct: purchased DiscoveRx KINOMEscan
Outline: as §1

PIM2 = target: T5, PIM2 (Homo sapiens, UniProt Q9P1W9); settings: read-out: % Retention on Solid Support
T5 construct: purchased DiscoveRx KINOMEscan
Outline: as §1

CDK13 = target: T6, CDK13 (Homo sapiens, UniProt Q14004); settings: 1 µM i-CDK9
T6 construct: purchased DiscoveRx
Outline: as §1

EGFR(L858R,T790M) = target: T7, EGFR(L858R,T790M) (Homo sapiens, UniProt P00533, L858R/T790M)
T7 construct: purchased DiscoveRx KINOMEscan
Outline: as §1

[2] = target: T8, RPS6KA5(Kin.Dom.1-N-terminal) (Homo sapiens, UniProt O75582); settings: read-out: % Retention on Solid Support
T8 construct: RPS6KA5(Kin.Dom.1-N-terminal); purchased DiscoveRx KINOMEscan
Outline: as §1

IKK-alpha = target: T9, IKK-alpha (Homo sapiens, UniProt O15111); settings: read-out: % Retention on Solid Support
T9 construct: purchased DiscoveRx KINOMEscan
Outline: as §1

MELK = target: T10, MELK (Homo sapiens, UniProt Q14680); settings: read-out: % Retention on Solid Support
T10 construct: purchased DiscoveRx KINOMEscan
Outline: as §1

TAOK1 = target: T11, TAOK1 (Homo sapiens, UniProt Q7L7X3); settings: read-out: % Retention on Solid Support
T11 construct: purchased DiscoveRx KINOMEscan
Outline: as §1

RIOK1 = target: T12, RIOK1 (Homo sapiens, UniProt Q9BRS2); settings: read-out: % Retention on Solid Support
T12 construct: purchased DiscoveRx KINOMEscan
Outline: as §1

CDK8 = target: T13, CDK8 (Homo sapiens, UniProt P49336)
T13 construct: purchased DiscoveRx KINOMEscan
Outline: as §1

ROCK2 = target: T14, ROCK2 (Homo sapiens, UniProt O75116); settings: read-out: % Retention on Solid Support
T14 construct: purchased DiscoveRx KINOMEscan
Outline: as §1

CIT = target: T15, CIT (Homo sapiens, UniProt O14578)
T15 construct: purchased DiscoveRx KINOMEscan
Outline: as §1

MAP3K1 = target: T16, MAP3K1 (Homo sapiens, UniProt Q13233); settings: read-out: % Retention on Solid Support
T16 construct: purchased DiscoveRx KINOMEscan
Outline: as §1

GRK4 = target: T17, GRK4 (Homo sapiens, UniProt P32298); settings: read-out: % Retention on Solid Support
T17 construct: purchased DiscoveRx KINOMEscan
Outline: as §1

NLK = target: T18, NLK (Homo sapiens, UniProt Q9UBE8); settings: read-out: % Retention on Solid Support
T18 construct: purchased DiscoveRx KINOMEscan
Outline: as §1

MRCKA = target: T19, MRCKA (Homo sapiens, UniProt Q5VT25); settings: read-out: % Retention on Solid Support
T19 construct: purchased DiscoveRx KINOMEscan
Outline: as §1

NEK2 = target: T20, NEK2 (Homo sapiens, UniProt P51955); settings: read-out: % Retention on Solid Support
T20 construct: purchased DiscoveRx KINOMEscan
Outline: as §1

FGFR4 = target: T21, FGFR4 (Homo sapiens, UniProt P22455); settings: read-out: % Retention on Solid Support
T21 construct: purchased DiscoveRx KINOMEscan
Outline: as §1

TBK1 = target: T22, TBK1 (Homo sapiens, UniProt Q9UHD2); settings: read-out: % Retention on Solid Support
T22 construct: purchased DiscoveRx KINOMEscan
Outline: as §1

EPHA3 = target: T23, EPHA3 (Homo sapiens, UniProt P29320); settings: read-out: % Retention on Solid Support
T23 construct: purchased DiscoveRx KINOMEscan
Outline: as §1

EPHA7 = target: T24, EPHA7 (Homo sapiens, UniProt Q15375); settings: read-out: % Retention on Solid Support
T24 construct: purchased DiscoveRx KINOMEscan
Outline: as §1

RET(M918T) = target: T25, RET(M918T) (Homo sapiens, UniProt P07949, M918T); settings: read-out: % Retention on Solid Support
T25 construct: purchased DiscoveRx KINOMEscan
Outline: as §1

GAK = target: T26, GAK (Homo sapiens, UniProt O14976); settings: read-out: % Retention on Solid Support
T26 construct: purchased DiscoveRx KINOMEscan
Outline: as §1

STK36 = target: T27, STK36 (Homo sapiens, UniProt Q9NRP7); settings: read-out: % Retention on Solid Support
T27 construct: purchased DiscoveRx KINOMEscan
Outline: as §1

AURKB = target: T28, AURKB (Homo sapiens, UniProt Q96GD4); settings: read-out: % Retention on Solid Support
T28 construct: purchased DiscoveRx KINOMEscan
Outline: as §1

HIPK2 = target: T29, HIPK2 (Homo sapiens, UniProt Q9H2X6); settings: read-out: % Retention on Solid Support
T29 construct: purchased DiscoveRx KINOMEscan
Outline: as §1

T2 sequence (Q04759 whole entry): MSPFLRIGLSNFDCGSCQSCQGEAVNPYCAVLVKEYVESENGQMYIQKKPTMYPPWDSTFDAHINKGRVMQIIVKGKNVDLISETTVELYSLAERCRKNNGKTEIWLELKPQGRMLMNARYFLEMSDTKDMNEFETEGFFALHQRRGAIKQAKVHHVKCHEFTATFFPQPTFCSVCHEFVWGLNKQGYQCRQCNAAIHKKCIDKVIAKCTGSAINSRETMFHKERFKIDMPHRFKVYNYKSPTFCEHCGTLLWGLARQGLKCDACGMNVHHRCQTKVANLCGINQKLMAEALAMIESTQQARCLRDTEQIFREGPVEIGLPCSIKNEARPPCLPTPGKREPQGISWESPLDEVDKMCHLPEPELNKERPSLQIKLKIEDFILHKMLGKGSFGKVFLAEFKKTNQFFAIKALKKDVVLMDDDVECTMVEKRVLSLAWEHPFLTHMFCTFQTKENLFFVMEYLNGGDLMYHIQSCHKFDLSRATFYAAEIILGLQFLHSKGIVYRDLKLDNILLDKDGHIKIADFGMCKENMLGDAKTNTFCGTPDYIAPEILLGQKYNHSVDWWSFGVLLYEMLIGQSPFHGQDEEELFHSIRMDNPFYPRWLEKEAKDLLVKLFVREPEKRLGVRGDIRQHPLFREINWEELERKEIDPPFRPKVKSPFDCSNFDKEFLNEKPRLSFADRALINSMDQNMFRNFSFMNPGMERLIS
T22 sequence (Q9UHD2 whole entry): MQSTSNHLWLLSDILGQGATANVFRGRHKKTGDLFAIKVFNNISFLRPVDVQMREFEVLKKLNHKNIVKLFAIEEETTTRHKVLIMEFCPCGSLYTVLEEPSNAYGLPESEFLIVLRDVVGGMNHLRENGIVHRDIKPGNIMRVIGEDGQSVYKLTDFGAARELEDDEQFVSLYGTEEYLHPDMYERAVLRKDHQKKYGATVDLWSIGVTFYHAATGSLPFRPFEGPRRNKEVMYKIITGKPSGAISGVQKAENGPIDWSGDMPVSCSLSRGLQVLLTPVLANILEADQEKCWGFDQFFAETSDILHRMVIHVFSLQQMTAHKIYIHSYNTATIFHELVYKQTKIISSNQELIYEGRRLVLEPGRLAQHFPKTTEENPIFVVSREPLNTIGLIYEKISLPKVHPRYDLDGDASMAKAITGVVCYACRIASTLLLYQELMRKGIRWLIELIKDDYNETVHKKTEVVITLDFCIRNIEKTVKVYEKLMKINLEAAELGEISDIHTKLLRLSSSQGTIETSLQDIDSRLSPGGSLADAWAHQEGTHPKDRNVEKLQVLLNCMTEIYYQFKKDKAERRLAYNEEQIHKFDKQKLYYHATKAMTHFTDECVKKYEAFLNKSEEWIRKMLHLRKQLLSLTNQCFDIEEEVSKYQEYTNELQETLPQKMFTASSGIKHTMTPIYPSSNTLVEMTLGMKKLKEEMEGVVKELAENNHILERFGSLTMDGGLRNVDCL
T19 sequence (Q5VT25 whole entry): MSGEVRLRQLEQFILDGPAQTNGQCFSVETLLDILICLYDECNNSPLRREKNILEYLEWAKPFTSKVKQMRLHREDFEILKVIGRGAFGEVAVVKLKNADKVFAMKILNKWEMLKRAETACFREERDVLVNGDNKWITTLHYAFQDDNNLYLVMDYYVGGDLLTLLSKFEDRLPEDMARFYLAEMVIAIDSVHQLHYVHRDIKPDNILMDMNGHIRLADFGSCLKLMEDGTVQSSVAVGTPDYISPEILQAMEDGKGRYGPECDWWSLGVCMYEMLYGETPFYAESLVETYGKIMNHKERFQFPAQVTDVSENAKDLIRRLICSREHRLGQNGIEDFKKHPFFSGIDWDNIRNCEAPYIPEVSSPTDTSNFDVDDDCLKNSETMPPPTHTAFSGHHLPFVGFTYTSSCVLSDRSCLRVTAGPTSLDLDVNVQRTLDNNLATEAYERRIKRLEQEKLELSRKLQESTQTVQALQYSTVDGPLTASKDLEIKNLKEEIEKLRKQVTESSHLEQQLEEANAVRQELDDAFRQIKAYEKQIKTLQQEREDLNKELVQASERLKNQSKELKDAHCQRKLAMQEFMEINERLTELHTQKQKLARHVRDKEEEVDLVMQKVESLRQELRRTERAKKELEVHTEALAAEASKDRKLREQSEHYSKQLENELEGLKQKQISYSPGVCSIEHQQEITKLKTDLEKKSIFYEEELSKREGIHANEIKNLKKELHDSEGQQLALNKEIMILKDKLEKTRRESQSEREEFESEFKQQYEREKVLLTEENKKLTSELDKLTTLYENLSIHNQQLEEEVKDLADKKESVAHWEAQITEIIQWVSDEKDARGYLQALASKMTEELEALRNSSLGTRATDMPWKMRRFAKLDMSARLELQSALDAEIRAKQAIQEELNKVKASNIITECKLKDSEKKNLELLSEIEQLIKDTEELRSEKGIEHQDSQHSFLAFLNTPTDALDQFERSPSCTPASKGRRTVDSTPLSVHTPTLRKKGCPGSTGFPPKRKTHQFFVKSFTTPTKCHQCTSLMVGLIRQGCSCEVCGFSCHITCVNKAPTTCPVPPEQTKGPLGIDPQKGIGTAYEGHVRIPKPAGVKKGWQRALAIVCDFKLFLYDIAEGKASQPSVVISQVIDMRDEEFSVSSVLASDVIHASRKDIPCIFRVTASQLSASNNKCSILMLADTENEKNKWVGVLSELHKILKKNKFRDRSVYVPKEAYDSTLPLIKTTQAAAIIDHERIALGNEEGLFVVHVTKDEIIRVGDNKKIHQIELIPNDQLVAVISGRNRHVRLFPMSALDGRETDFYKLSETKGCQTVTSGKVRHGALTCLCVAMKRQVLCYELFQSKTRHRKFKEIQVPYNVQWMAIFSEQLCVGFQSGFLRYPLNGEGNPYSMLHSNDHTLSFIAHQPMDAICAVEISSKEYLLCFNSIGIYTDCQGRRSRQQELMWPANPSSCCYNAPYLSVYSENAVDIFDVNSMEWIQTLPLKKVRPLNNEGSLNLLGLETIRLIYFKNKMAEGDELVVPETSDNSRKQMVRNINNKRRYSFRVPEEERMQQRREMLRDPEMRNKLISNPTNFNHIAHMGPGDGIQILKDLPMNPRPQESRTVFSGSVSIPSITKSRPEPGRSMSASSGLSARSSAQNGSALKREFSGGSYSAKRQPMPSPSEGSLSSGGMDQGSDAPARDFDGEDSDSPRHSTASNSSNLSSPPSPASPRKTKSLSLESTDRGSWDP
T28 sequence (Q96GD4 whole entry): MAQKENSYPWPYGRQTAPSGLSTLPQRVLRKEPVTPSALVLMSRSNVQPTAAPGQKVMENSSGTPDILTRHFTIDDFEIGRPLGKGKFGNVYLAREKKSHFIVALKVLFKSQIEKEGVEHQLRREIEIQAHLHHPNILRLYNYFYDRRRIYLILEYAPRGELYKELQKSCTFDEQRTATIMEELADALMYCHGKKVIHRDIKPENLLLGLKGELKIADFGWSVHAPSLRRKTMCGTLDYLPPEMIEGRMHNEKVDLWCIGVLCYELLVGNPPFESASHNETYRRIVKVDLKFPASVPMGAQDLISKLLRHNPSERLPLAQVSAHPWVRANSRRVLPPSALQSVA
T9 sequence (O15111 whole entry): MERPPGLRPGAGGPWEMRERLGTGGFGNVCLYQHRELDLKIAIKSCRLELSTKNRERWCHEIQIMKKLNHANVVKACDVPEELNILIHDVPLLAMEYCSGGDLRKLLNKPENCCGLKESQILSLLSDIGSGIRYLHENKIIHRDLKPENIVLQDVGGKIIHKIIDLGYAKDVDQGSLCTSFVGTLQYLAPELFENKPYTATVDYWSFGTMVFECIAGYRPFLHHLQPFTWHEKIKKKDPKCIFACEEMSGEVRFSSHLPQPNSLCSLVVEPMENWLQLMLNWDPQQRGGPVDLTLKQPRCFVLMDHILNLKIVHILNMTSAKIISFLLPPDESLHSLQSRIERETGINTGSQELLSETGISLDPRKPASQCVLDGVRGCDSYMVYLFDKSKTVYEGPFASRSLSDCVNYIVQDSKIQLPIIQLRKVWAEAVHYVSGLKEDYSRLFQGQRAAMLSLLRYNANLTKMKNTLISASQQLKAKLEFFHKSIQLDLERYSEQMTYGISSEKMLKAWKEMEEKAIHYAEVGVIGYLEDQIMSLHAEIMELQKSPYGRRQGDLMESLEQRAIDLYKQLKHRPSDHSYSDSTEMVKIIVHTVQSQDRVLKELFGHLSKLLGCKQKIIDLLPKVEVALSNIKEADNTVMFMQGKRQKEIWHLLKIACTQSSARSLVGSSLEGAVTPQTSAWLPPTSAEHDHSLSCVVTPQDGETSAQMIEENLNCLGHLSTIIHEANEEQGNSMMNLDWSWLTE
T13 sequence (P49336 whole entry): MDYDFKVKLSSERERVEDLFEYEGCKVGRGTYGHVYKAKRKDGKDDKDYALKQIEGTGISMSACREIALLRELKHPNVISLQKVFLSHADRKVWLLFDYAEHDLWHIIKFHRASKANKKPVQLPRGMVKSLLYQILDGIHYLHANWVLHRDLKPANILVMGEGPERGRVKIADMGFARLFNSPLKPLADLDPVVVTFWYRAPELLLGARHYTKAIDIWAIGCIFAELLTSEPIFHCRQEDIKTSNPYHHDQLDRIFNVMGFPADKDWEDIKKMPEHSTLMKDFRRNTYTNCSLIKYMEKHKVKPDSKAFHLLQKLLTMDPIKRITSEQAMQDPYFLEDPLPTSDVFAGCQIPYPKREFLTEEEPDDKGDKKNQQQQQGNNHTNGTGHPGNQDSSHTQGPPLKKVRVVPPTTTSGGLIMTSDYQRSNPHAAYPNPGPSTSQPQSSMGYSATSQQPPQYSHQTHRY
T5 sequence (Q9P1W9 whole entry): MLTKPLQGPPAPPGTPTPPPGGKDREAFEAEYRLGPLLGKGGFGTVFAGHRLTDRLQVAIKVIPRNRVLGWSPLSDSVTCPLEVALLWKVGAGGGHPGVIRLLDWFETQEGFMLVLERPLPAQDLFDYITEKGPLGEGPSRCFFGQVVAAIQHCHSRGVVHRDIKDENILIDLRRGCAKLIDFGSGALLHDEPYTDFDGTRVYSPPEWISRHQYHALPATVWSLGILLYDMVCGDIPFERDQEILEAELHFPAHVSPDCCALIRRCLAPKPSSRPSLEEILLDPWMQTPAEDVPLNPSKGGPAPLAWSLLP

SMILES: N[C@H]1CC[C@H](Nc2cc(-c3cccc(NCc4cccc(F)c4)n3)c(Cl)cn2)CC1 [i-CDK9, N2′-(trans-4-aminocyclohexyl)-5′-chloro-N6-(3-fluorobenzyl)-2,4′-bipyridine-2′,6-diamine]
- remaining binding at 1 µM [1]: 74%
- remaining binding at 1 µM (PRKCQ; 1 µM i-CDK9): 100%
- remaining binding at 10 µM (PRKCQ; 10 µM i-CDK9): 88%
- remaining binding at 1 µM (CSF1R; 1 µM i-CDK9): 59%
- remaining binding at 10 µM (CSF1R; 10 µM i-CDK9): 100%
- remaining binding at 1 µM (VRK2): 100%
- remaining binding at 1 µM (PIM2; 1 µM i-CDK9): 96%
- remaining binding at 10 µM (PIM2; 10 µM i-CDK9): 22%
- % binding to immobilized ligand (CDK13): 100%
- % Retention on Solid Support (EGFR(L858R,T790M); 1 µM i-CDK9): 100%
- % Retention on Solid Support (EGFR(L858R,T790M); 10 µM i-CDK9): 89%
- remaining binding at 1 µM ([2]; 1 µM i-CDK9): 79%
- remaining binding at 10 µM ([2]; 10 µM i-CDK9): 100%
- remaining binding at 1 µM (IKK-alpha; 1 µM i-CDK9): 85%
- remaining binding at 10 µM (IKK-alpha; 10 µM i-CDK9): 71%
- remaining binding at 1 µM (MELK; 1 µM i-CDK9): 100%
- remaining binding at 10 µM (MELK; 10 µM i-CDK9): 95%
- remaining binding at 1 µM (TAOK1; 1 µM i-CDK9): 51%
- remaining binding at 10 µM (TAOK1; 10 µM i-CDK9): 4%
- remaining binding at 1 µM (RIOK1; 1 µM i-CDK9): 100%
- remaining binding at 10 µM (RIOK1; 10 µM i-CDK9): 57%
- % Retention on Solid Support (CDK8; 1 µM i-CDK9): 44%
- % Retention on Solid Support (CDK8; 10 µM i-CDK9): 100%
- remaining binding at 1 µM (ROCK2; 1 µM i-CDK9): 100%
- remaining binding at 10 µM (ROCK2; 10 µM i-CDK9): 90%
- % Retention on Solid Support (CIT; 1 µM i-CDK9): 60%
- % Retention on Solid Support (CIT; 10 µM i-CDK9): 8.2%
- remaining binding at 1 µM (MAP3K1; 1 µM i-CDK9): 93%
- remaining binding at 10 µM (MAP3K1; 10 µM i-CDK9): 100%
- remaining binding at 1 µM (GRK4; 1 µM i-CDK9): 100%
- remaining binding at 10 µM (GRK4; 10 µM i-CDK9): 100%
- remaining binding at 1 µM (NLK; 1 µM i-CDK9): 100%
- remaining binding at 10 µM (NLK; 10 µM i-CDK9): 91%
- remaining binding at 1 µM (MRCKA; 1 µM i-CDK9): 100%
- remaining binding at 10 µM (MRCKA; 10 µM i-CDK9): 100%
- remaining binding at 1 µM (NEK2; 1 µM i-CDK9): 77%
- remaining binding at 10 µM (NEK2; 10 µM i-CDK9): 100%
- remaining binding at 1 µM (FGFR4; 1 µM i-CDK9): 98%
- remaining binding at 10 µM (FGFR4; 10 µM i-CDK9): 100%
- remaining binding at 1 µM (TBK1; 1 µM i-CDK9): 100%
- remaining binding at 10 µM (TBK1; 10 µM i-CDK9): 100%
- remaining binding at 1 µM (EPHA3; 1 µM i-CDK9): 85%
- remaining binding at 10 µM (EPHA3; 10 µM i-CDK9): 100%
- remaining binding at 1 µM (EPHA7; 1 µM i-CDK9): 100%
- remaining binding at 10 µM (EPHA7; 10 µM i-CDK9): 96%
- remaining binding at 1 µM (RET(M918T); 1 µM i-CDK9): 81%
- remaining binding at 10 µM (RET(M918T); 10 µM i-CDK9): 73%
- remaining binding at 1 µM (GAK; 1 µM i-CDK9): 100%
- remaining binding at 10 µM (GAK; 10 µM i-CDK9): 89%
- remaining binding at 1 µM (STK36; 1 µM i-CDK9): 92%
- remaining binding at 10 µM (STK36; 10 µM i-CDK9): 68%
- remaining binding at 1 µM (AURKB; 1 µM i-CDK9): 72%
- remaining binding at 10 µM (AURKB; 10 µM i-CDK9): 91%
- remaining binding at 1 µM (HIPK2; 1 µM i-CDK9): 100%
- remaining binding at 10 µM (HIPK2; 10 µM i-CDK9): 37%
